Assay results: patent publication US8258114B2, “Modulation of glucose-6-phosphatase translocase expression” (Isis Pharmaceuticals, Inc., priority 2004, dated 2012)
Oligonucleotides are written 5' to 3', each unit as a sugar letter and its base; * is a phosphorothioate linkage, no mark a phosphodiester; rarer units and linkages stand in square brackets, end groups in braces. Plain capitals give the bases only. e = 2'-O-(2-methoxyethyl) (MOE); [5mC] = 5-methylcytosine; d = 2'-deoxy (DNA)

Tested on: mouse glucose-6-phosphatase translocase mRNA
Assay: Antisense inhibition of mouse glucose-6-phosphatase translocase mRNA in primary mouse hepatocytes, 50 nM (Table 5)
Format: cell-based
Details: 50 nM oligonucleotide, mRNA by real-time PCR, normalized with RIBOGREEN
Procedure: Primary mouse hepatocytes were prepared from CD-1 mice purchased from Charles River Labs. Primary mouse hepatocytes were routinely cultured in Hepatocyte Attachment Media supplemented with 10% fetal bovine serum (Invitrogen Life Technologies, Carlsbad, Calif.), 250 nM dexamethasone, and 10 nM bovine insulin (Sigma-Aldrich, St. Louis, Mo.). Cells were seeded into 96-well plates (Falcon-Primaria #353872, BD Biosciences, Bedford, Mass.) at a density of approximately 4,000-6,000 cells/well for use in oligomeric compound transfection experiments.
Quantitation of glucose 6-phosphatase translocase mRNA levels was accomplished by real-time quantitative PCR using the ABI PRISM™ 7600, 7700, or 7900 Sequence Detection System (PE-Applied Biosystems, Foster City, Calif.) according to manufacturer's instructions.
Prior to quantitative PCR analysis, primer-probe sets specific to the target gene being measured were evaluated for their ability to be “multiplexed” with a GAPDH amplification reaction. After isolation the RNA is subjected to sequential reverse transcriptase (RT) reaction and real-time PCR, both of which are performed in the same well. RT and PCR reagents were obtained from Invitrogen Life Technologies (Carlsbad, Calif.). […] The RT reaction was carried out by incubation for 30 minutes at 48° C. Following a 10 minute incubation at 95° C. to activate the PLATINUM® Taq, 40 cycles of a two-step PCR protocol were carried out: 95° C. for 15 seconds (denaturation) followed by 60° C. for 1.5 minutes (annealing/extension).
Gene target quantities obtained by RT, real-time PCR were normalized using either the expression level of GAPDH, a gene whose expression is constant, or by quantifying total RNA using RiboGreen™ (Molecular Probes, Inc. Eugene, Oreg.). GAPDH expression was quantified by RT, real-time PCR, by being run simultaneously with the target, multiplexing, or separately. Total RNA was quantified using RiboGreen™ RNA quantification reagent (Molecular Probes, Inc. Eugene, Oreg.).
A series of oligomeric compounds was designed to target different regions of mouse glucose-6-phosphatase translocase, using published sequences cited in Table 1. All compounds in Table 5 are chimeric oligonucleotides (“gapmers”) 20 nucleotides in length, composed of a central “gap” region consisting of 10 2′-deoxynucleotides, which is flanked on both sides (5′ and 3′) by five-nucleotide “wings”. The wings are composed of 2′-O-(2-methoxyethyl) nucleotides, also known as 2′-MOE nucleotides. The internucleoside (backbone) linkages are phosphorothioate throughout the oligonucleotide. All cytidine residues are 5-methylcytidines. The compounds were analyzed for their effect on gene target mRNA levels by quantitative real-time PCR as described in other examples herein, using the following primer-probe set designed to hybridize to mouse glucose-6-phosphatase translocase: • forward primer: […] (SEQ ID NO: 66) • reverse primer: CCATCCCAGCCATCATGAG (SEQ ID NO: 67) and the PCR probe was: FAM-[…]-TAMRA (SEQ ID NO: 68) where FAM is the fluorescent reporter dye and TAMRA is the quencher dye. Mouse target gene quantities were normalized by quantifying total RNA using RIBOGREEN™.
Data are from experiments in which primary mouse hepatocytes were treated with 50 nM of the antisense oligonucleotides of the present invention. A reduction in expression is expressed as percent inhibition in Table 5. If present, “N.D.” indicates “not determined”. The target regions to which these oligomeric compounds are inhibitory are herein referred to as “validated target segments.”

Row | Sequence | % Inhib [%]
1 | AAACGTAAAGGTTCTGTGTT (eA*eA*eA*e[5mC]*eG*dT*dA*dA*dA*dG*dG*dT*dT*d[5mC]*dT*eG*eT*eG*eT*eT; antisense) [ISIS 148990] | 16
2 | AACCAGGATCCAGATCTTGG (eA*eA*e[5mC]*e[5mC]*eA*dG*dG*dA*dT*d[5mC]*d[5mC]*dA*dG*dA*dT*e[5mC]*eT*eT*eG*eG; antisense) [ISIS 148976] | 48
3 | AAGGCCTCCGACCTCGAGGG (eA*eA*eG*eG*e[5mC]*d[5mC]*dT*d[5mC]*d[5mC]*dG*dA*d[5mC]*d[5mC]*dT*d[5mC]*eG*eA*eG*eG*eG; antisense) [ISIS 148967] | 34
4 | AAGTCGGTTTGCCCTCTATA (eA*eA*eG*eT*e[5mC]*dG*dG*dT*dT*dT*dG*d[5mC]*d[5mC]*d[5mC]*dT*e[5mC]*eT*eA*eT*eA; antisense) [ISIS 149007] | 64
5 | AATGCTTCCTACAAGGCCTC (eA*eA*eT*eG*e[5mC]*dT*dT*d[5mC]*d[5mC]*dT*dA*d[5mC]*dA*dA*dG*eG*e[5mC]*e[5mC]*eT*e[5mC]; antisense) [ISIS 148968] | 26
6 | ACAAAGGAGAAGGTTTTGCG (eA*e[5mC]*eA*eA*eA*dG*dG*dA*dG*dA*dA*dG*dG*dT*dT*eT*eT*eG*e[5mC]*eG; antisense) [ISIS 148943] | 47
7 | ACAACTGTGCTGGCTCCACA (eA*e[5mC]*eA*eA*e[5mC]*dT*dG*dT*dG*d[5mC]*dT*dG*dG*d[5mC]*dT*e[5mC]*e[5mC]*eA*e[5mC]*eA; antisense) [ISIS 148982] | 69
8 | ACAGAGACAGCCCTGCCTTC (eA*e[5mC]*eA*eG*eA*dG*dA*d[5mC]*dA*dG*d[5mC]*d[5mC]*d[5mC]*dT*dG*e[5mC]*e[5mC]*eT*eT*e[5mC]; antisense) [ISIS 148970] | 78
9 | ACAGGGCCAGTGTGCTGCGC (eA*e[5mC]*eA*eG*eG*dG*d[5mC]*d[5mC]*dA*dG*dT*dG*dT*dG*d[5mC]*eT*eG*e[5mC]*eG*e[5mC]; antisense) [ISIS 148958] | 50
10 | ACCCACAAGGGCGGACTGCC (eA*e[5mC]*e[5mC]*e[5mC]*eA*d[5mC]*dA*dA*dG*dG*dG*d[5mC]*dG*dG*dA*e[5mC]*eT*eG*e[5mC]*e[5mC]; antisense) [ISIS 148964] | 0
11 | AGACCACAAGGTAGCCAGTG (eA*eG*eA*e[5mC]*e[5mC]*dA*d[5mC]*dA*dA*dG*dG*dT*dA*dG*d[5mC]*e[5mC]*eA*eG*eT*eG; antisense) [ISIS 148961] | 36
12 | AGCCATCATGAGTAGCAATA (eA*eG*e[5mC]*e[5mC]*eA*dT*d[5mC]*dA*dT*dG*dA*dG*dT*dA*dG*e[5mC]*eA*eA*eT*eA; antisense) [ISIS 148973] | 35
13 | AGCCCCTGTGCCAGACCATT (eA*eG*e[5mC]*e[5mC]*e[5mC]*d[5mC]*dT*dG*dT*dG*d[5mC]*d[5mC]*dA*dG*dA*e[5mC]*e[5mC]*eA*eT*eT; antisense) [ISIS 148953] | 58
14 | AGGGTATTCATGAGAGTGGT (eA*eG*eG*eG*eT*dA*dT*dT*d[5mC]*dA*dT*dG*dA*dG*dA*eG*eT*eG*eG*eT; antisense) [ISIS 149006] | 36
15 | AGGTTCTGTGTTAGCCAGAG (eA*eG*eG*eT*eT*d[5mC]*dT*dG*dT*dG*dT*dT*dA*dG*d[5mC]*e[5mC]*eA*eG*eA*eG; antisense) [ISIS 148989] | 58
16 | ATAGGCCGTGGCGAGGGTTC (eA*eT*eA*eG*eG*d[5mC]*d[5mC]*dG*dT*dG*dG*d[5mC]*dG*dA*dG*eG*eG*eT*eT*e[5mC]; antisense) [ISIS 148972] | 36
17 | ATCTTGGGTGAGTCACTGGT (eA*eT*e[5mC]*eT*eT*dG*dG*dG*dT*dG*dA*dG*dT*d[5mC]*dA*e[5mC]*eT*eG*eG*eT; antisense) [ISIS 148975] | 42
18 | ATGAGAGGTTCCACACAAGT (eA*eT*eG*eA*eG*dA*dG*dG*dT*dT*d[5mC]*d[5mC]*dA*d[5mC]*dA*e[5mC]*eA*eA*eG*eT; antisense) [ISIS 148979] | 54

Row | Sequence | % Inhib [%]
19 | ATGGAGTCTAGAACCAAACG (eA*eT*eG*eG*eA*dG*dT*d[5mC]*dT*dA*dG*dA*dA*d[5mC]*d[5mC]*eA*eA*eA*e[5mC]*eG; antisense) [ISIS 148995] | 56
20 | CACAGAAACGTAAAGGTTCT (e[5mC]*eA*e[5mC]*eA*eG*dA*dA*dA*d[5mC]*dG*dT*dA*dA*dA*dG*eG*eT*eT*e[5mC]*eT; antisense) [ISIS 148991] | 22
21 | CACAGACTCTTGACTGCTCC (e[5mC]*eA*e[5mC]*eA*eG*dA*d[5mC]*dT*d[5mC]*dT*dT*dG*dA*d[5mC]*dT*eG*e[5mC]*eT*e[5mC]*e[5mC]; antisense) [ISIS 148939] | 41
22 | CACGGCTCCCAAAACCAGGA (e[5mC]*eA*e[5mC]*eG*eG*d[5mC]*dT*d[5mC]*d[5mC]*d[5mC]*dA*dA*dA*dA*d[5mC]*e[5mC]*eA*eG*eG*eA; antisense) [ISIS 148977] | 9
23 | CAGAGCGATCTCATCCACCA (e[5mC]*eA*eG*eA*eG*d[5mC]*dG*dA*dT*d[5mC]*dT*d[5mC]*dA*dT*d[5mC]*e[5mC]*eA*e[5mC]*e[5mC]*eA; antisense) [ISIS 148944] | 35
24 | CAGAGGGTCCAGATTTCGGA (e[5mC]*eA*eG*eA*eG*dG*dG*dT*d[5mC]*d[5mC]*dA*dG*dA*dT*dT*eT*e[5mC]*eG*eG*eA; antisense) [ISIS 148959] | −6
25 | CCAAACTGGGATGGCTCAAA (e[5mC]*e[5mC]*eA*eA*eA*d[5mC]*dT*dG*dG*dG*dA*dT*dG*dG*d[5mC]*eT*e[5mC]*eA*eA*eA; antisense) [ISIS 148954] | 48
26 | CCAAACTTCCAGCCAGGTTC (e[5mC]*e[5mC]*eA*eA*eA*d[5mC]*dT*dT*d[5mC]*d[5mC]*dA*dG*d[5mC]*d[5mC]*dA*eG*eG*eT*eT*e[5mC]; antisense) [ISIS 148956] | 27
27 | CCACAGGCCATTAATACTCA (e[5mC]*e[5mC]*eA*e[5mC]*eA*dG*dG*d[5mC]*d[5mC]*dA*dT*dT*dA*dA*dT*eA*e[5mC]*eT*e[5mC]*eA; antisense) [ISIS 148999] | 45
28 | CCAGTGGACAGCACCCAGAG (e[5mC]*e[5mC]*eA*eG*eT*dG*dG*dA*d[5mC]*dA*dG*d[5mC]*dA*d[5mC]*d[5mC]*e[5mC]*eA*eG*eA*eG; antisense) [ISIS 148960] | 28
29 | CCATTAAGAAACCAAGGAGC (e[5mC]*e[5mC]*eA*eT*eT*dA*dA*dG*dA*dA*dA*d[5mC]*d[5mC]*dA*dA*eG*eG*eA*eG*e[5mC]; antisense) [ISIS 148952] | 20
30 | CCGTAGCCTTGGGCTGCCAT (e[5mC]*e[5mC]*eG*eT*eA*dG*d[5mC]*d[5mC]*dT*dT*dG*dG*dG*d[5mC]*dT*eG*e[5mC]*e[5mC]*eA*eT; antisense) [ISIS 148941] | 62
31 | CCGTGTCCTGCCAGTAAGGC (e[5mC]*e[5mC]*eG*eT*eG*dT*d[5mC]*d[5mC]*dT*dG*d[5mC]*d[5mC]*dA*dG*dT*eA*eA*eG*eG*e[5mC]; antisense) [ISIS 148986] | 55
32 | CCTAGGAGAAGAAGAAGGGT (e[5mC]*e[5mC]*eT*eA*eG*dG*dA*dG*dA*dA*dG*dA*dA*dG*dA*eA*eG*eG*eG*eT; antisense) [ISIS 148998] | 21
33 | CGAGGGTTCCCATACAGAGA (e[5mC]*eG*eA*eG*eG*dG*dT*dT*d[5mC]*d[5mC]*d[5mC]*dA*dT*dA*d[5mC]*eA*eG*eA*eG*eA; antisense) [ISIS 148971] | 88
34 | CGCCATGGCCCTGTCTGACA (e[5mC]*eG*e[5mC]*e[5mC]*eA*dT*dG*dG*d[5mC]*d[5mC]*d[5mC]*dT*dG*dT*d[5mC]*eT*eG*eA*e[5mC]*eA; antisense) [ISIS 148969] | 24
35 | CGTCATCATTTTAAATAGAG (e[5mC]*eG*eT*e[5mC]*eA*dT*d[5mC]*dA*dT*dT*dT*dT*dA*dA*dA*eT*eA*eG*eA*eG; antisense) [ISIS 148994] | 10
